Source: PMC12469827, “Targeting G6PD with Benzimidazole and Thiazole Derivatives Suppresses SIRT 2 and VEGF Expression and Induces Cytotoxicity in Glioma Cells” (International Journal of Molecular Sciences, 2025)

What was measured:
[1] = target: T1, Glucose-6-Phosphate Dehydrogenase (G6PD) (Homo sapiens, UniProt P11413); assay: residual activity of purified recombinant enzyme (NADPH at […] nm) after […] h incubation; supported by CD and intrinsic fluorescence; assay type: biochemical
[2] = target: T1, Glucose-6-Phosphate Dehydrogenase (G6PD); assay: residual activity of purified recombinant enzyme (NADPH at […] nm) after […] h incubation; supported by intrinsic fluorescence (minimal CD change); assay type: biochemical

T1 sequence (P11413 2-515): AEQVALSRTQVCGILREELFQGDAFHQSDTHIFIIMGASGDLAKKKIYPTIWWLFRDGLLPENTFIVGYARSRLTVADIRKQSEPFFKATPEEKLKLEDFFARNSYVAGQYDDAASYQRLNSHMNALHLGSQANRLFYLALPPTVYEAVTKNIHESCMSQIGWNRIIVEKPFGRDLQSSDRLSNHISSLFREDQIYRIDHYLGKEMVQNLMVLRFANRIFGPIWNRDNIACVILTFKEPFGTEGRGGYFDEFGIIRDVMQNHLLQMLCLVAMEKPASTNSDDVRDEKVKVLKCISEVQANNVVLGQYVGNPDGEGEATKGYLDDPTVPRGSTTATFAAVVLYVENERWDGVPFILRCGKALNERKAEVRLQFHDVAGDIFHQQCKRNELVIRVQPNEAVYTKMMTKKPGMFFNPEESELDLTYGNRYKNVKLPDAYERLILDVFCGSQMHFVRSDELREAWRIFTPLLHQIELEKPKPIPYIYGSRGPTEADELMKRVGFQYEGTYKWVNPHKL

In the case of `O=C(Nc1ccc(Cl)cc1)Nc1ncc([N+](=O)[O-])s1` [CNZ-3], the IC50 [1] is reported as 121 µM.
`Cc1cnc(C[S+]([O-])c2nc3cc([N+](=O)[O-])ccc3[nH]2)c(C)c1OCC(F)(F)F` (stereo not drawn) [BZM-9] gave an IC50 [2] of 42 µM.
Work on `O=[N+]([O-])c1ccc2nc([S+]([O-])Cc3ccccn3)[nH]c2c1` (stereo not drawn) [BZM-7] yielded an IC50 ([1]; read-out: IC50) of 40 µM.
